Assay results published in US20090298934A1, “Diamidine Inhibitors of TDP1” (GOVERNMENT OF THE US, AS REPRESENTED BY THE SECRET, priority 2006, published 2009).

Columns and labels:
[1] = target: T1, Tdp1 (Homo sapiens, UniProt Q9NUW8); assay: High-throughput electrochemiluminescent (ECL) Tdp1 assay; format: biochemical
T1 construct: His tag with thrombin site and linker (printed […] = X1; made in house; host or cells: E. coli BL21 (Novagen), plasmid pHN1910 in vector pET 15b
Description: High-throughput electrochemiluminescene assay developed to identify novel Tdp1 inhibitors. […] This leads to a loss of the chemiluminescence signal. Positive hits for potential Tdp1 inhibitors prevent this loss of signal. C, Signal response curve in the presence of increasing concentrations (nM) of Tdp1.
A, Graph representing the effect of 1981 compounds in the NCI-DTP diversity set on Tdp1 activity at 10 pM. Each dot indicates a signal value for a tested sample. The substrate chemiluminescence (Arbitrary units; A.U.) in the absence of Tdp1 averages at 16313±1084 (n=200; where “n” indicates the number of samples). In the presence of Tdp1 the loss of signal averages at 8784±559 (n=100). The effect of 1981 compounds screened is represented. Positive Tdp1 inhibitors prevent the loss of signal. […] Vanadate at 10 mM was used for comparison.

[2] = target: T1, Tdp1; assay: Tdp1 gel assay (32P-labeled 14Y / D14Y / 14Y-CC substrates, denaturing PAGE, densitometry); format: biochemical; conditions: for Ability to inhibit Tdp1 activity in the 14Y substrate (gel): 25 nM 14Y, 1 ng Tdp1, 20 min, pH 8.0, 25° C.; for Conversion half-time (t) of 14Y: 1.9 min in the absence of drug
Description: FIG. 7. […] A, Schematic representation of the Tdp1 biochemical assay. The partially duplex […] D14Y or single stranded 14Y was used as a substrate. ^32P-Radiolabeling (*) was at the 5′ terminus of the 14-mer strand. Tdp1 catalyzes the hydrolysis of the 3′-phosphotyrosine bond and converts 14Y and D14Y to an oligonucleotide with 3′-phosphate, 14P or D14P respectively. […] Arrows indicate the 3′-phosphate oligonucleotide product (14P) that runs quicker than the corresponding tyrosyl oligonucleotide substrate (14Y) in a denaturing PAGE. The duplex D14Y substrate and D14P product are detected on the gel by their corresponding labeled single strands (14Y and 14P), as they are no longer annealed under the denatured conditions.
FIG. 9. […] Aliquots were taken at the indicated times (min). Reaction products were analyzed by denaturing PAGE. B, densitometry analysis of the gel shown in A. Tdp1 activity measured as the percentage of DNA substrate 14Y converted to 14P (Left panel) or substrate 14Y remaining (Right panel) as a function of reaction time. […] A representative gel is shown. D, densitometry analysis of the gel shown in C. Tdp1 activity was calculated as the percentage of DNA substrate 14Y converted to 14P.
FIG. 10. […] A, Sequences of the oligonucletotide substrates 14Y and 14Y-CC, which differ in their 3′-terminal bases being a -TT or a -CC that is linked to the phosphotyrosine. B, Reactions (100 μl) containing either 25 nM 14Y or 14Y-CC and 5 ng of Tdp1 was incubated at pH 8.0 at 25° C. Aliquots were taken at the indicated times (min). Reaction products were analyzed by denaturing PAGE. C, densitometry analysis of the gel shown in B. Tdp1 activity measured as the percentage of DNA substrates 14Y or 14Y-CC converted to their corresponding products as a function of reaction time. […] A representative gel is shown. E, densitometry analysis of the gel shown in D. Tdp1 activity was calculated as the percentage of DNA substrates 14Y or 14Y-CC converted to their product.
FIG. 11. […] R; common chemical moiety. […] Samples were separated on a 20% Urea-PAGE gel and visualized.
Preparation of Tdp1 substrates: HPLC purified oligonucleotides N14Y (Plo et al., (2003) DNA Repair (Amst) 2(10):1087-1100) were labeled at their 5′-end with [γ-^32P]-ATP (Perkin-Elmer Life Science Co., Boston, Mass.) by incubation with 3′-phosphatase free T4 polynucleotide kinase (Roche applied Science, Indianapolis, Ind.) according to the manufacturer's protocols. Unincorporated nucleotides were removed by Sephadex G-25 spin-column chromatography (Mini Quick Spin Oligo Columns, Roche, Indianapolis, Ind.). For the production of the oligonucleotide duplexes D14Y, N14Y was mixed with the complementary oligonucleotide in equal molar ratios in annealing buffer (10 mM Tris-HCl pH 7.5, 100 mM NaCl, 10 mM MgCl2), heated to 96° C., and allowed to cool down slowly (over 2 h) to room temperature. Tdp1 assays: Unless indicated otherwise, Tdp1 assays are performed in 20 μl mixtures containing 50 mM Tris-HCl, pH 8.0, 80 mM KCl, 2 mM EDTA, 1 mM dithiothreitol (D)T, and 40 μg/ml bovine serum albumin (BSA). For initial screening of Tdp1 inhibitors, 25 nM of 5′-^32P-labeled substrate (D14Y) is reacted with 1 ng Tdp1 (≈0.7 nM) in the absence or presence of inhibitor for 20 min at 25° C. Reactions are stopped by addition of 60 μl of gel loading buffer (98% (v/v) formamide, 1% (w/v) xylene cyanol, 1% (w/v) bromophenol blue). Twelve μl of aliquots are resolved in 20% denaturing polyacrylamide (AccuGel, National Diagnostics, Atlanta, Ga.) (19:1) gel containing 7 M urea. After drying, gels are exposed overnight to PhosphorImager screens (Molecular Dynamics, Sunnyvale, Calif.). Screens are scanned, and images are obtained with the Molecular Dynamics software (Sunnyvale, Calif.). Densitometry analyses are performed using ImageQuant 5.2 software package (Amersham Biosciences, Piscataway, N.J.).

T1 sequence (Q9NUW8 whole entry): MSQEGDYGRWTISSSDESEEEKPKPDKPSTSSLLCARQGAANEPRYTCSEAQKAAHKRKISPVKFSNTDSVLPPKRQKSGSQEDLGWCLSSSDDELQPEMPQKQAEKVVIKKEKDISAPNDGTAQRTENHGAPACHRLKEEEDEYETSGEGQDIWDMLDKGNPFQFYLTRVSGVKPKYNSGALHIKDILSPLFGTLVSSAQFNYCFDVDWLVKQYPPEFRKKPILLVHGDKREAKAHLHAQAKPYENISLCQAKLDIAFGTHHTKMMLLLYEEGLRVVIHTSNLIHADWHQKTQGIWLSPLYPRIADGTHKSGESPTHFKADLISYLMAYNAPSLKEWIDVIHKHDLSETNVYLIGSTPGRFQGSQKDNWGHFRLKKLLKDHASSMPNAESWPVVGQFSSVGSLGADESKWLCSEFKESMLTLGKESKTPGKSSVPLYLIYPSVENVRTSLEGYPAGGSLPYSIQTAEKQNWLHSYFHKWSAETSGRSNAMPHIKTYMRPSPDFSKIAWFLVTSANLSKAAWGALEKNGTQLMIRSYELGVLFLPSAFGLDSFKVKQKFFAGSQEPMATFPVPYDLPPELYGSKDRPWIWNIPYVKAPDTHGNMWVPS

Structure (SMILES): N=C(N)c1ccc(-c2ccc(-c3ccc(C(=N)N)cc3)o2)cc1 [Compound (b), 2,5-di-(4-phenylamidine)furan]
- ECL signal value (substrate chemiluminescence) ([1]; 10 μM compound, without Tdp1 16313±1084, with Tdp1 8784±559): 16910 A.U.
- inhibition at 10 µM ([1]; at 10 μM): 100%
- Ability to inhibit Tdp1 activity in the 14Y substrate (gel) [2]: exhibits an inhibition of Tdp1 activity at 30 μM
- inhibition at 30 µM ([2]; 30 μM compound, 0.1 ng of Tdp1, 14Y): 50%
- Inhibition of Tdp1 activity after increasing Tdp1 ([2]; 30 μM compound, Tdp1 increased to 1 ng, 14Y): almost completely reversed
- Conversion half-time (t) of 14Y ([2]; 30 μM compound): 2.7 min
- Conversion half-time (t) of 14Y ([2]; 60 μM compound): 4.4 min
- Type of Tdp1 inhibition ([2]; dependence on reaction time and Tdp1 concentration): reversible inhibition

Structure (SMILES): CC(=O)NCC(=O)O.CC(=O)NCC(=O)O.N=C(N)c1ccc(N=NNc2ccc(C(=N)N)cc2)cc1 [Berenil, reference compound]
- Ability to inhibit Tdp1 activity in the 14Y substrate (gel) [2]: some activity, albeit at a high concentration (300 μM)

Structure (SMILES): CN(C)C1C(O)=C(C(=O)NCN2CCN(C(=N)NC(=N)N)CC2)C(=O)C2(O)C(O)=C3C(=O)c4c(O)cccc4C(C)(O)C3CC12 (centres unmarked) [Compound (a)]
- IC50 ([2]; IC50 ds14Y, double-stranded 14Y substrate): 19 µM
- IC50 ([2]; IC50 ss14Y, single-stranded 14Y substrate): 12 µM
